Data: PubChem BioAssay (NCI)
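Each compound was tested at five concentrations against cells in 96-well plates for 48 hours. GI50 marks 50% less growth. TGI is the concentration that stops growth completely.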

Experiments:
Assay in all cases: DTP human tumour cell line panel, 48 h
[1] = tested on: NCI-H460 lung
[2] = tested on: HOP-62 NSCLC
[3] = tested on: 786-0 renal
[4] = tested on: RPMI-8226 leukemia
[5] = tested on: SNB-19 CNS
[6] = tested on: SF-539 CNS
[7] = tested on: SW-620 colon
[8] = tested on: OVCAR-3 ovarian
[9] = tested on: NCI-H522 lung
[10] = tested on: A498 renal
[11] = tested on: UACC-62 melanoma
[12] = tested on: MOLT-4 leukemia
[13] = tested on: UO-31 renal
[14] = tested on: SF-268 CNS
[15] = tested on: PC-3 prostate
[16] = tested on: NCI/ADR-RES ovarian
[17] = tested on: DU-145 prostate
[18] = tested on: TK-10 renal
[19] = tested on: SF-295 CNS
[20] = tested on: HL-60(TB) leukemia
[21] = tested on: A549 NSCLC
[22] = tested on: U251 CNS
[23] = tested on: ACHN renal
[24] = tested on: SNB-75 CNS
[25] = tested on: SK-MEL-5 melanoma
[26] = tested on: NCI-H23 lung
[27] = tested on: SK-MEL-2 melanoma
[28] = tested on: MDA-MB-231 breast
[29] = tested on: SK-OV-3 ovarian
[30] = tested on: OVCAR-8 ovarian
[31] = tested on: LOX IMVI melanoma
[32] = tested on: NCI-H226 lung
[33] = tested on: KM12 colon
[34] = tested on: COLO 205 colon
[35] = tested on: OVCAR-4 ovarian
[36] = tested on: HCT-15 colon
[37] = tested on: HOP-92 NSCLC
[38] = tested on: EKVX NSCLC
[39] = tested on: MALME-3M melanoma
[40] = tested on: CCRF-CEM leukemia
[41] = tested on: K-562 leukemia
[42] = tested on: RXF 393 renal
[43] = tested on: HS 578T breast
[44] = tested on: BT-549 breast
[45] = tested on: HCC-2998 colon
[46] = tested on: HCT-116 colon
[47] = tested on: IGROV1 ovarian
[48] = tested on: OVCAR-5 ovarian
[49] = tested on: UACC-257 melanoma
[50] = tested on: MDA-MB-435
[51] = tested on: CAKI-1 renal
[52] = tested on: SN12C renal
[53] = tested on: SK-MEL-28 melanoma
[54] = tested on: M14 melanoma
[55] = tested on: HT29 colon

C=C1CC2(OC1=O)C(=O)N(C)c1ccc(I)cc12 (centres undefined)
GI50 [1]: 2750 nM | TGI [1]: 11100 nM | GI50 [2]: 12900 nM | TGI [2]: 27700 nM | GI50 [3]: 1650 nM | TGI [3]: 3180 nM | GI50 [4]: 558 nM | TGI [4]: 2530 nM | GI50 [5]: 6980 nM | TGI [5]: 20200 nM | GI50 [6]: 1380 nM | TGI [6]: 2800 nM | GI50 [7]: 566 nM | TGI [7]: 2040 nM | GI50 [8]: 422 nM | TGI [8]: 1430 nM | GI50 [9]: 444 nM | TGI [9]: 1800 nM | GI50 [10]: 2500 nM | TGI [10]: 10200 nM | GI50 [11]: 1250 nM | TGI [11]: 2690 nM | GI50 [12]: 548 nM | TGI [12]: 3450 nM | GI50 [13]: 622 nM | TGI [13]: 2030 nM | GI50 [14]: 2010 nM | TGI [14]: 5010 nM | GI50 [15]: 2290 nM | TGI [15]: 7860 nM | GI50 [16]: 1850 nM | TGI [16]: 4680 nM | GI50 [17]: 941 nM | TGI [17]: 2270 nM | GI50 [18]: 1440 nM | TGI [18]: 3170 nM | GI50 [19]: 2300 nM | TGI [19]: 8160 nM | GI50 [20]: 337 nM | TGI [20]: 1540 nM | GI50 [21]: 6230 nM | TGI [21]: 22500 nM | GI50 [22]: 1810 nM | TGI [22]: 5210 nM | GI50 [23]: 624 nM | TGI [23]: 1830 nM | GI50 [24]: 3690 nM | TGI [24]: 12700 nM | GI50 [25]: 2260 nM | TGI [25]: 6370 nM | GI50 [26]: 1740 nM | TGI [26]: 4580 nM | GI50 [27]: 2160 nM | TGI [27]: 6280 nM | GI50 [28]: 1810 nM | TGI [28]: 5310 nM | GI50 [29]: 9950 nM | TGI [29]: 22500 nM | GI50 [30]: 1760 nM | TGI [30]: 4900 nM | GI50 [31]: 1140 nM | TGI [31]: 2520 nM | GI50 [32]: 2310 nM | TGI [32]: 9900 nM | GI50 [33]: 3370 nM | TGI [33]: 8550 nM | GI50 [34]: 841 nM | TGI [34]: 2170 nM | GI50 [35]: 1270 nM | TGI [35]: 5430 nM | GI50 [36]: 583 nM | TGI [36]: 1970 nM | GI50 [37]: 659 nM | TGI [37]: 2690 nM | GI50 [38]: 1660 nM | TGI [38]: 8150 nM | GI50 [39]: 272 nM | TGI [39]: 1930 nM | GI50 [40]: 1060 nM | TGI [40]: > 100000 nM | GI50 [41]: 1310 nM | TGI [41]: > 23700 nM | GI50 [42]: 481 nM | TGI [42]: 1180 nM | GI50 [43]: 3260 nM | TGI [43]: > 22700 nM | GI50 [44]: 1560 nM | TGI [44]: 4190 nM | GI50 [45]: 2690 nM | TGI [45]: 7040 nM | GI50 [46]: 348 nM | TGI [46]: 1420 nM | GI50 [47]: 1230 nM | TGI [47]: 4560 nM | GI50 [48]: 2130 nM | TGI [48]: 4840 nM | GI50 [49]: 909 nM | TGI [49]: 2490 nM | GI50 [50]: 1570 nM | TGI [50]: 5490 nM | GI50 [51]: 836 nM | TGI [51]: 2790 nM | GI50 [52]: 1710 nM | TGI [52]: 4020 nM | GI50 [53]: 1730 nM | TGI [53]: 3600 nM | GI50 [54]: 1490 nM | TGI [54]: 3030 nM | GI50 [55]: 1030 nM
